Measurements taken from the NIST ThermoML archive (doi:10.1007/s10765-009-0667-2).
Values joined by “and” are separate entries in the source; they are usually repeats but may differ in a detail not shown here. Equal entries are not always repeated. Numbers after ± are expanded uncertainties.

What was measured:
[1] = 101 kPa, Liquid; for mass density: Vibrating tube method
[2] = xn = mol fraction of the nth substance listed; settings: 101 kPa, Liquid, x1 = 1; for mass density: Vibrating tube method

SMILES | viscosity ([1]; 308.15 K) | mass density ([1]; 308.15 K) | viscosity ([1]; 313.15 K) | mass density ([1]; 313.15 K) | mass density ([1]; 318.15 K) | mass density ([2]; 308.15 K) | viscosity ([2]; 308.15 K) | mass density ([2]; 313.15 K) | viscosity ([2]; 313.15 K)
c1ccccc1 [benzene] | 0.5272 ± 0.0098 mPa·s | 862.9 ± 0.2 kg/m3 | 0.4942 ± 0.0093 mPa·s | 857.7 ± 0.2 kg/m3 |  |  |  |  | 
C1CCCCCCC1 [cyclooctane] | 1.803 ± 0.029 mPa·s | 823.6 ± 0.2 kg/m3 | 1.636 ± 0.027 mPa·s | 819.7 ± 0.2 kg/m3 |  |  |  |  | 
CCc1ccccc1 [ethylbenzene] | 0.5652 ± 0.01 mPa·s | 853.7 ± 0.2 kg/m3 | 0.5294 ± 0.0099 mPa·s | 849.5 ± 0.2 kg/m3 | 849.5 ± 0.2 kg/m3 |  |  |  | 
CCCCCCC [heptane] | 0.3497 ± 0.0071 mPa·s | 671.3 ± 0.3 kg/m3 | 0.3329 ± 0.0069 mPa·s | 667.1 ± 0.3 kg/m3 |  |  |  |  | 
c1ccccc1 [benzene] + C1CCCCCCC1 |  |  |  |  |  | 862.9 ± 0.2 kg/m3 | 0.5272 ± 0.0098 mPa·s | 857.7 ± 0.2 kg/m3 | 0.4942 ± 0.0093 mPa·s
Cc1ccccc1 [toluene] | 0.494 ± 0.0093 mPa·s | 852.8 ± 0.2 kg/m3 | 0.4676 ± 0.0089 mPa·s and 0.4755 ± 0.009 mPa·s | 848.3 ± 0.2 kg/m3 | 848.3 ± 0.2 kg/m3 |  |  |  | 
